# Legend:
# [1] = biological target: T1, Retinoic acid receptor beta (Homo sapiens) (UniProt P10826); test: Agonist activity at human RARbeta expressed in human MG63 cells co-transfected with RARE3-SV40-Luc assessed as transcriptional efficacy at 10^-6 M after 2 days by luciferase reporter gene assay realtive to 9-cis-retinoic acid; type: functional, cell-based; settings: MG-63
# T1 sequence (whole entry): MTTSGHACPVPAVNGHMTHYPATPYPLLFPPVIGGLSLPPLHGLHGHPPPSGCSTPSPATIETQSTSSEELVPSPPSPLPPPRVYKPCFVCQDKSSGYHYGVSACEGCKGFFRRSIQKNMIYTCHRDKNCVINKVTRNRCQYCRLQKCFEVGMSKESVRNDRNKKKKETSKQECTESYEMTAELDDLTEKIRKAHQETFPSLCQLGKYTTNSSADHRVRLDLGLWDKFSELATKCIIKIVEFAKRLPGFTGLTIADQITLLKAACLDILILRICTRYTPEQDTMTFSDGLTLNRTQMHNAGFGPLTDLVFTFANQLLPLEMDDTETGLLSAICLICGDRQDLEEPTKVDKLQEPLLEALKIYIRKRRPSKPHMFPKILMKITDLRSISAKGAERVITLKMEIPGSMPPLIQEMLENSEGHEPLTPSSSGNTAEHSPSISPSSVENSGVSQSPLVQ
# [2] = biological target: T2, Cellular retinoic acid-binding protein 2 (Rattus norvegicus) (UniProt P51673); test: Agonist activity at rat CRABP2 expressed in human MG63 cells co-transfected with RXRE-SV40-Luc assessed as transcriptional efficacy at 10^-6 M after 2 days by luciferase reporter gene assay realtive to 9-cis-retinoic acid; type: functional, cell-based; settings: MG-63
# T2 sequence (whole entry): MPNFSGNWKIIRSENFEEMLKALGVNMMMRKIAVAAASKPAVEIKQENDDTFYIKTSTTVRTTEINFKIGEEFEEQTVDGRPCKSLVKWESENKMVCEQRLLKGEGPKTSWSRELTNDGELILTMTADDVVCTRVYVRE
Ratio [1],Ratio [2],SMILES
0.04,0.18,C/C(=C/C=C/C(C)=C/C(=O)O)C1=C[C@H]2CC[C@]1(C)C2(C)C
1.92,2.42,CC(=C/C=C/C(C)=C/C(=O)O)/C=C/C1=CC[C@H]2C[C@@H]1C2(C)C
1.48,0.52,CC(=C/C=C/C(C)=C/C(=O)O)/C=C/C1=C[C@H]2C[C@@H]([C@@H]1C)C2(C)C
0.89,1.3,CC(=C/C=C/C(C)=C/C(=O)O)/C=C/C1=C[C@@H]2C[C@H]([C@H]1C)C2(C)C
0.32,2.06,CC(C)=C1CC[C@H](C)C=C1/C=C/C(C)=C\C=C\C(C)=C\C(=O)O
0.25,1.12,CC(=C/C=C/C(C)=C/C(=O)O)/C=C/C1=C[C@H](C)CC[C@H]1C(C)C
1.99,0.66,"CC(=C/C=C/C(C)=C/C(=O)O)/C=C/C1=CC2CC[C@]1(C)C2(C)C (single isomer, unassigned)"
0.38,1.37,CC(=C/C=C/C(C)=C/C(=O)O)/C=C/C1=C[C@@H](C)CC[C@@H]1C(C)C
1.36,2.34,CC(=C/C=C/C(C)=C/C(=O)O)/C=C/C1=C[C@@H]2CC[C@@]1(C)C2(C)C

# More lines, now with the values behind:
SMILES,Ratio [1],Ratio [2]
CC(C)=C1CC[C@@H](C)C=C1/C=C/C(C)=C\C=C\C(C)=C\C(=O)O,0.5,1.5
C=C(C)[C@@H]1CCC2=CC(\C(C)=C/C=C/C(C)=C/C(=O)O)=CC[C@]2(C)[C@H]1C,0.1,0.23
C=C(C)[C@@H]1CC[C@@H](C)C=C1/C=C/C(C)=C\C=C\C(C)=C\C(=O)O,0.35,1.07
C=C(C)[C@H]1CC[C@H](C)C=C1/C=C/C(C)=C\C=C\C(C)=C\C(=O)O,1.33,1.76
CC(=C/C=C/C(C)=C/C(=O)O)/C=C/C1=C[C@]2(C(C)C)C[C@@H]2[C@H]1C,1.03,2.52
C/C(=C/C=C/C(C)=C/C(=O)O)C1=C[C@H](C)CC[C@H]1C(C)C,0.14,0.37
C/C(=C/C=C/C(C)=C/C(=O)O)C1=CC(C)(C)[C@@]23CC[C@@H](C2)C(C)(C)C3=C1,0.98,0.71

# Reference: ChEMBL document CHEMBL1772949, “Replacement of the hydrophobic part of 9-cis-retinoic acid with cyclic terpenoid moiety results in RXR-selective agonistic activity” (Bioorg Med Chem, 2011)
